Data from patent publication US7361671B2, “Substituted heteroarylalkanoic acids” (The Institute for Pharmaceutical Discovery, Inc., priority 2001, dated 2008).
Counter-ions that a name gives are not always drawn. Values belong to the compound of their own block, whether it stands above or below them.

Tests used:
[1] = biological target: human aldose reductase (hALR2) (Homo sapiens, UniProt P15121); assay: inhibition of human aldose reductase (hALR2) activity, methods similar to Butera et al.; assay type: biochemical; settings: concentration to inhibit activity by 50%, read-out: hAR-#1 (aldose)
Description: Representative compounds of the invention are tested for their potency, selectivity and efficacy as inhibitors of human aldose reductase. […] Using this assay, the concentrations required to inhibit human aldose reductase (hALR2) activity by 50% (IC50) are determined.

[2] = tested on: urinary excretion of uric acid; assay: Uricosuric activity in the chimpanzee: amount of uric acid excreted in the urine; assay type: in vivo; settings: single oral 4 mg/kg dose; for Amount of uric acid excreted in the urine in 24 hour intervals, mean: mean of chimps
Description: (§1) Compound of Example 14 was administered to chimpanzees orally as a single 4 mg/kg does. While four animals were dosed, complete data was not collected for one animal (Chimp #4), as an adverse reaction to anesthesia required early termination of this animal from the study.

[3] = tested on: blood uric acid levels; assay: Uricosuric activity in the chimpanzee: concentrations of uric acid in serum; assay type: in vivo; settings: single oral 4 mg/kg dose; for Concentrations of uric acid in serum, mean: mean of chimps
Description: as §1

Compound: CCc1c(CC(=O)O)c(C)nc(C)c1Cc1nc2c(F)c(F)cc(F)c2s1 [Example 10, 2,6-dimethyl-4-ethyl-5-(4,5,7-trifluoro-benzothiazol-2-ylmethyl)-pyridin-3-yl-acetic acid hydrochloride]
- IC50 [1]: 31 nM

Compound: O=C(O)Cc1cc(Cc2nc3c(F)c(F)cc(F)c3s2)cnc1-c1ccccc1 (as salt: hydrochloride) [Example 13, 2-phenyl-5-(4,5,7-trifluoro-benzothiazol-2-ylmethyl)-pyridin-3-yl-acetic acid hydrochloride]
- melting point: 110 °C (dec.)

Compound: O=C(O)Cc1cc(Cc2nc3c(F)c(F)cc(F)c3s2)cnc1Cc1ccccc1 (as salt: hydrochloride) [Example 12, 2-benzyl-5-(4,5,7-trifluoro-benzothiazol-2-ylmethyl)-pyridin-3-yl-acetic acid hydrochloride]
- melting point: 175 °C (dec.)

Compound: O=C(O)Cc1cc(Cc2nc3c(F)c(F)cc(F)c3s2)cnc1Cc1ccccc1 [Example 12, 2-benzyl-5-(4,5,7-trifluoro-benzothiazol-2-ylmethyl)-pyridin-3-yl-acetic acid hydrochloride]
- IC50 [1]: 5 nM

Compound: Cc1ccc2c(Cc3nc4c(F)c(F)cc(F)c4s3)cn(CC(=O)O)c2n1 [Example 2, [6-methyl-3-(4,5,7-trifluoro-benzothiazol-2-ylmethyl)-pyrrolo[2,3-b]pyridin-1-yl]-acetic acid]
- IC50 [1]: 8 nM

Compound: CCc1ncc(CC(=O)O)cc1Cc1nc2c(F)c(F)cc(F)c2s1 [Example 14, 6-ethyl-5-(4,5,7-trifluoro-benzothiazol-2-ylmethyl)-pyridin-3-yl-acetic acid hydrochloride]
- IC50 [1]: 7 nM
- Amount of uric acid excreted in the urine in 24 hour intervals ([2]; Chimp #1, 0-24 hours): 1020 mg
- Amount of uric acid excreted in the urine in 24 hour intervals ([2]; Chimp #1, 24-48 hours): 686 mg
- Amount of uric acid excreted in the urine in 24 hour intervals ([2]; Chimp #1, 48-72 hours): 657 mg
- Amount of uric acid excreted in the urine in 24 hour intervals ([2]; Chimp #1, Baseline): 321 mg
- Amount of uric acid excreted in the urine in 24 hour intervals ([2]; Chimp #2, 0-24 hours): 758 mg
- Amount of uric acid excreted in the urine in 24 hour intervals ([2]; Chimp #2, 24-48 hours): 399 mg
- Amount of uric acid excreted in the urine in 24 hour intervals ([2]; Chimp #2, 48-72 hours): 290 mg
- Amount of uric acid excreted in the urine in 24 hour intervals ([2]; Chimp #2, Baseline): 474 mg
- Amount of uric acid excreted in the urine in 24 hour intervals ([2]; Chimp #3, 0-24 hours): 843 mg
- Amount of uric acid excreted in the urine in 24 hour intervals ([2]; Chimp #3, 24-48 hours): 189 mg
- Amount of uric acid excreted in the urine in 24 hour intervals ([2]; Chimp #3, 48-72 hours): 216 mg
- Amount of uric acid excreted in the urine in 24 hour intervals ([2]; Chimp #3, Baseline): 347 mg
- Amount of uric acid excreted in the urine in 24 hour intervals ([2]; Chimp #4, Baseline): 450 mg
- urinary excretion of uric acid ([2]; chimpanzee, over the first 24 hours following dosage): concomitant increase in the urinary excretion of uric acid
- Amount of uric acid excreted in the urine in 24 hour intervals, mean ([2]; 0-24 hours): 874 mg
- Amount of uric acid excreted in the urine in 24 hour intervals, mean ([2]; 24-48 hours): 425 mg
- Amount of uric acid excreted in the urine in 24 hour intervals, mean ([2]; 48-72 hours): 388 mg
- Amount of uric acid excreted in the urine in 24 hour intervals, mean ([2]; Baseline): 398 mg
- Concentrations of uric acid in serum ([3]; Chimp #1, 0 hours): 3.0 mg/dL
- Concentrations of uric acid in serum ([3]; Chimp #1, 0.25 hours): 3.0 mg/dL
- Concentrations of uric acid in serum ([3]; Chimp #1, 0.50 hours): 3.0 mg/dL
- Concentrations of uric acid in serum ([3]; Chimp #1, 1.0 hours): 3.0 mg/dL
- Concentrations of uric acid in serum ([3]; Chimp #1, 2.0 hours): 2.8 mg/dL
- Concentrations of uric acid in serum ([3]; Chimp #1, 6.0 hours): 2.2 mg/dL
- Concentrations of uric acid in serum ([3]; Chimp #1, 12 hours): 1.9 mg/dL
- Concentrations of uric acid in serum ([3]; Chimp #1, 24 hours): 2.3 mg/dL
- Concentrations of uric acid in serum ([3]; Chimp #1, 48 hours): 3.4 mg/dL
- Concentrations of uric acid in serum ([3]; Chimp #1, 72 hours): 3.2 mg/dL
- Concentrations of uric acid in serum ([3]; Chimp #1, Baseline): 2.9 mg/dL
- Concentrations of uric acid in serum ([3]; Chimp #2, 0 hours): 1.7 mg/dL
- Concentrations of uric acid in serum ([3]; Chimp #2, 0.25 hours): 1.8 mg/dL
- Concentrations of uric acid in serum ([3]; Chimp #2, 0.50 hours): 1.8 mg/dL
- Concentrations of uric acid in serum ([3]; Chimp #2, 1.0 hours): 1.8 mg/dL
- Concentrations of uric acid in serum ([3]; Chimp #2, 2.0 hours): 1.7 mg/dL
- Concentrations of uric acid in serum ([3]; Chimp #2, 6.0 hours): 1.2 mg/dL
- Concentrations of uric acid in serum ([3]; Chimp #2, 12 hours): 0.9 mg/dL
- Concentrations of uric acid in serum ([3]; Chimp #2, 24 hours): 1.4 mg/dL
- Concentrations of uric acid in serum ([3]; Chimp #2, 48 hours): 1.2 mg/dL
- Concentrations of uric acid in serum ([3]; Chimp #2, 72 hours): 1.4 mg/dL
- Concentrations of uric acid in serum ([3]; Chimp #2, Baseline): 1.9 mg/dL
- Concentrations of uric acid in serum ([3]; Chimp #3, 0 hours): 2.2 mg/dL
- Concentrations of uric acid in serum ([3]; Chimp #3, 0.25 hours): 2.3 mg/dL
- Concentrations of uric acid in serum ([3]; Chimp #3, 0.50 hours): 2.3 mg/dL
- Concentrations of uric acid in serum ([3]; Chimp #3, 1.0 hours): 2.1 mg/dL
- Concentrations of uric acid in serum ([3]; Chimp #3, 2.0 hours): 1.9 mg/dL
- Concentrations of uric acid in serum ([3]; Chimp #3, 6.0 hours): 1.6 mg/dL
- Concentrations of uric acid in serum ([3]; Chimp #3, 12 hours): 1.6 mg/dL
- Concentrations of uric acid in serum ([3]; Chimp #3, 24 hours): 1.9 mg/dL
- Concentrations of uric acid in serum ([3]; Chimp #3, 48 hours): 1.9 mg/dL
- Concentrations of uric acid in serum ([3]; Chimp #3, 72 hours): 2.4 mg/dL
- Concentrations of uric acid in serum ([3]; Chimp #3, Baseline): 2.3 mg/dL
- Concentrations of uric acid in serum ([3]; Chimp #4, 0 hours): 2.5 mg/dL
- Concentrations of uric acid in serum ([3]; Chimp #4, 0.25 hours): 2.6 mg/dL
- Concentrations of uric acid in serum ([3]; Chimp #4, 0.50 hours): 2.5 mg/dL
- Concentrations of uric acid in serum ([3]; Chimp #4, 1.0 hours): 2.7 mg/dL
- Concentrations of uric acid in serum ([3]; Chimp #4, 2.0 hours): 2.3 mg/dL
- Concentrations of uric acid in serum ([3]; Chimp #4, 6.0 hours): 1.8 mg/dL
- Concentrations of uric acid in serum ([3]; Chimp #4, 12 hours): 1.7 mg/dL
- Concentrations of uric acid in serum ([3]; Chimp #4, Baseline): 2.5 mg/dL
- maximal lowering of blood uric acid levels ([3]; chimpanzee, average of three animals, at approximately 12 hours following dosage): about 44%
- uricosuric effect ([3]; chimpanzee, data from three animals): clear uricosuric effect
- Concentrations of uric acid in serum, mean ([3]; 0 hours): 2.4 mg/dL
- Concentrations of uric acid in serum, mean ([3]; 0.25 hours): 2.4 mg/dL
- Concentrations of uric acid in serum, mean ([3]; 0.50 hours): 2.4 mg/dL
- Concentrations of uric acid in serum, mean ([3]; 1.0 hours): 2.4 mg/dL
- Concentrations of uric acid in serum, mean ([3]; 2.0 hours): 2.2 mg/dL
- Concentrations of uric acid in serum, mean ([3]; 6.0 hours): 1.7 mg/dL
- Concentrations of uric acid in serum, mean ([3]; 12 hours): 1.5 mg/dL
- Concentrations of uric acid in serum, mean ([3]; 24 hours): 1.9 mg/dL
- Concentrations of uric acid in serum, mean ([3]; 48 hours): 2.2 mg/dL
- Concentrations of uric acid in serum, mean ([3]; 72 hours): 2.3 mg/dL
- Concentrations of uric acid in serum, mean ([3]; Baseline): 2.4 mg/dL

Compound: O=C(O)Cc1cncc(Cc2nc3c(F)c(F)cc(F)c3s2)c1 [Example 8, 5-(4,5,7-trifluoro-benzothiazol-2-ylmethyl)-pyridin-3-yl-acetic acid hydrochloride]
- IC50 [1]: 8 nM

Compound: O=C(O)Cc1csc(Cc2nc3c(F)c(F)cc(F)c3s2)n1 [Example 25, [2-(4,5,7-Trifluoro-benzothiazol-2-ylmethyl)-thiazol-4-yl]-acetic acid]
- IC50 [1]: 130 nM

Compound: O=C(O)Cc1cnc(Cc2ccccc2)c(Cc2nc3c(F)c(F)cc(F)c3s2)c1 [Example 16, 6-Benzyl-5-(4,5,7-trifluoro-benzothiazol-2-ylmethyl)-pyridin-3-yl-acetic acid hydrochloride]
- IC50 [1]: 7 nM

The remaining compounds from weak to strong by IC50 [1], led by results:

- IC50 [1]: 31 nM
Compound: Cc1c(CC(=O)O)csc1Cc1nc2c(F)c(F)cc(F)c2s1 [Example 24, [4-methyl-5-(4,5,7-trifluoro-benzothiazol-2-ylmethyl)-thiophen-3-yl]-acetic acid]

- IC50 [1]: 8 nM
Compound: O=C(O)Cc1cc(Cc2nc3c(F)c(F)cc(F)c3s2)cnc1-c1ccccc1 [Example 13, 2-phenyl-5-(4,5,7-trifluoro-benzothiazol-2-ylmethyl)-pyridin-3-yl-acetic acid hydrochloride]

- IC50 [1]: 6 nM
Compound: O=C(O)Cc1cnc(-c2ccccc2)c(Cc2nc3c(F)c(F)cc(F)c3s2)c1 [Example 15, 6-Phenyl-5-(4,5,7-trifluoro-benzothiazol-2-ylmethyl)-pyridin-3-yl-acetic acid hydrochloride]

- IC50 [1]: 6 nM
Compound: CCc1ncc(Cc2nc3c(F)c(F)cc(F)c3s2)cc1CC(=O)O [Example 11, 2-ethyl-5-(4,5,7-trifluoro-benzothiazol-2-ylmethyl)-pyridin-3-yl-acetic acid hydrochloride]

- IC50 [1]: 6 nM
Compound: Cc1nc(C)c(Cc2nc3c(F)c(F)cc(F)c3s2)c(C)c1CC(=O)O [Example 9, 2,4,6-trimethyl-5-(4,5,7-trifluoro-benzothiazol-2-ylmethyl)-pyridin-3-yl-acetic acid hydrochloride]
